Values quoted from earlier work, collected in patent publication US6977269B1, “Method of improving animal tissue quality” (Pioneer Hi-Bred International, Inc, priority 2001, dated 2005).
Where two headings read alike, the source gives them in different places.

Assays:
[1] = compared with gamma-tocopherol; cited from earlier work
[2] = design: unit not given here; settings: cited from earlier work

Compound	water solubility [1]	tissue level ([2]; 400 IU/KG per steer daily for 180 days)	tissue level ([2]; 500 IU/KG per steer daily for 126 days)	tissue level ([2]; 1300 IU/KG per steer daily for 44 days)	tissue level ([2]; 2000 IU/KG per steer daily for 100 days)
Cc1c(O)cc2c(c1C)OC(C)(C(=O)O)CC2 (centres unmarked) [6-hydroxy-2,7,8-trimethylchroman-2-carboxylic acid]	more water soluble than gamma-tocopherol				
vitamin E		3.3	2.5	3.3	6.1
